Assay results: patent US11109607B2, “Oil-based compositions for enhancing oral health and general wellness in humans” (priority 2013, dated 2021)

Tests used:
[1] = system: Staphylococcus aureus (ATCC#14154); assay: Micro-broth dilution susceptibility testing (MIC/MBC); format: cell-based; conditions: for effect against Staphylococcus aureus (in words): ATCC#14154, grown in broth over 48 hours
Method: (§1) A micro-broth dilution technique was used to determine the susceptibility of the strains of Staphylococcus aureus. Susceptibility was expressed as minimum inhibitory (MIC) and/or minimum bactericidal (MBC) concentration.
(§2) Various essential oils, carvacrol, and monolaurin were tested alone or in combination for the treatment of Staphylococcus aureus infection. Twelve essential oils were tested in the study: oregano oil, olive oil (the diluent), pumpkin oil, fenugreek oil, myrtle oil, allspice oil, sage oil, lavender oil, bay leaf oil, cumin oil, cinnamon oil, and cassia oil.
(§3) The stock solutions of oregano oil, other essential oils, olive oil, and carvacrol were dissolved in 50% ethanol-Tween 80 solvents. Antibiotics were dissolved in 50% ethanol and used as positive controls. Solvent controls (addition of carrier without essential oil and monolaurin) were also included for reference in addition to regular controls.
(§4) The Sabouraud's glucose (S.g.) broth containing varying amounts (logarithmic, serially and 2-fold diluted) of oregano oil, other essential oils, carvacrol, monolaurin and various controls were inoculated with actively dividing Staphylococcus aureus cells. The cultures were incubated for about 24 hours and about 48 hours at a temperature of about 30° C. on a metabolic rotary shaker (220 rev/min), and the growth was monitored both visually and colorimetrically (at a wavelength of about […]). The minimum inhibitory concentration (MIC) was defined as the lowest concentration required to arrest the growth of the bacteria at the end of 24 hour of incubation. Minimum bactericidal concentration (MBC) was determined by sub-culturing a 0.01 ml aliquot of the medium drawn from the culture tubes after 48 hours on S.g. agar plates and incubated further for bacterial growth. The plates were scored for growth of the bacteria colonies. The lowest concentration of the antimicrobial agent causing negative growth (fewer than three colonies) was considered as MBC. In every case, the MIC and MBC were virtually the same.
A micro dilution study on Staphylococcus aureus (ATCC#14154) grown in broth over 48 hours was performed to determine the comparative effects of various antibiotics and essential oils against Staphylococcus aureus infection at the selected concentrations.

[2] = system: Staphylococcus aureus (ATCC#14775); assay: Murine systemic bacteremia model, 30-day survival; format: in vivo, mice; conditions: for in vivo effect on survival (in words): mice infected with 5xLD50, daily gavage 30 days; for mice surviving for 30 days (survivors/group): second study, groups of eight, 3.2 mg of each agent by gavage, vancomycin 400 μg i.p.; for mice surviving thirty days (survivors/total): summary across the in vivo studies
Method: Female BALB/c mice (about 15 grams to 20 grams in weight) were obtained from Taconic Farms (Germantown, N.Y.). The mice were maintained in a controlled environment at about 24° C. with a 12-hour light and 12-hour dark cycle and were acclimatized in the animal facility for about 3-5 days before testing. The mice were housed in groups of five, fed commercial rodent pellets, and given water ad libitum throughout the experiments. The Animal Welfare Board at Georgetown University Medical Center approved the protocol for the entire investigation.
In two separate experiments, groups of mice (6 and 8 respectively) infected with Staphylococcus aureus (5×LD50) were gavaged daily with oregano oil, carvacrol, monolaurin or combined oregano oil-monolaurin in 0.2 ml of olive oil for 30 days. The amount of bacterial agents administered was calculated based on the body weight of the mice. Control mice received daily gavages of either olive oil alone (negative control) or olive oil orally plus vancomycin (400 mcg) i.p. (positive control).
In the first in vivo experiment, the daily dose of oregano oil was either 2.0 μl (1.6 mg) or 4.0 μl (3.2 mg). […] In the second in vivo study, the daily dose of oregano oil was the same as the higher dose used before, i.e., 4.0 μl (3.2 mg). Monolaurin was given at the same dose; and when both agents were combined, the same individual doses were used, i.e., 3.2 mg of each. Both experiments were terminated at the end of 30 days. The body weight, the disease status, and the overall health of the mice during the experiments were recorded. The pathological status of the mice was determined by visual examination of the internal organs after their death or sacrifice at the completion of the experiment. Culturing aliquots of kidney homogenates on S.g. agar plates were tested for the renal burden of Staphylococcus aureus.
Furthermore, the in vivo therapeutic effects of the natural edible oregano oil and one of its major constituents, carvacrol, were examined in a murine systemic bacteremia model. […] Groups of six mice infected with Staphylococcus aureus (ATCC#14775) (5×LD50) were gavaged with varying amounts of oregano oil (2.0 μl 1.6 mg; and 4.0 μl 3.2 mg) or injected i.p. with vancomycin (400 μg) daily for 30 days. […] Fifty percent of the mice (3/6) receiving oregano oil (3.2 mg) survived over the thirty days, while only one of six receiving 1.6 mg oregano oil survived for 30 days. Also, 50% of those receiving vancomycin (400 μg) survived for 30 days, while all in the control group died within a three-day period. […] In contrast, numerous abscesses were noted and renal cultures were positive in all dying mice.
In a separate in vivo study, the effects of using monolaurin, either alone and in combination with oregano oil, were investigated and compared to the effects of oregano oil alone. Groups of eight mice were infected with five times the LD50 (5×LD50) of Staphylococcus aureus (A TIC #14775). Fifty percent of the mice (4/8) injected daily with vancomycin (400 μg i.p.) survived for the thirty days of study in contrast to the control group where all eight mice died within a week's time. In the three test groups, 3/8 survived for 30 days in the oregano oil group (3.2 mg), 4/8 survived in the monolaurin group (3.2 mg), and 5/8 survived in the group receiving the combination of oregano oil (3.2 mg) and monolaurin (3.2 mg). No abscesses were seen on inspection, and no bacterial growth was found in the kidney tissue of the 30-day survivors.

[3] = system: Staphylococcus aureus (ATCC#14775); assay: Micro-broth dilution susceptibility testing (MIC/MBC); format: cell-based; conditions: for killing of Staphylococcus aureus in vitro (summary): summary statement
Method: as §1, §2, §3, §4
The micro dilution study was performed with another strain of Staphylococcus aureus (ATCC#14775). Although the results from the two strains (ATCC#14775 and ATCC#14154) were generally similar, there were some minor differences. […] Oregano oil provided efficacy against the ATCC#14775 strain infections at the concentration as low as 0.25 mg oregano oil. Carvacrol provided efficacy against the ATCC#14775 strain infections at a phenol content equivalent to that in 0.5 mg oregano oil.
The in vitro experiment on Staphylococcus aureus (ATCC#14775) was performed to investigate the efficacy of using monolaurin alone, using monolaurin in combination with oregano oil, or using oregano oil alone.

[H]/N=C(/N)N[C@H]1[C@H](O)[C@@H](O)[C@H](O[C@@H]2O[C@@H](C)[C@](O)(C=O)[C@H]2O[C@@H]2O[C@@H](CO)[C@H](O)[C@@H](O)[C@@H]2NC)[C@@H](N/C(N)=N\[H])[C@@H]1O [Streptomycin, streptomycin]
effect against Staphylococcus aureus (in words) [1]: did not completely kill the bacteria

Cc1ccc(C(C)C)cc1O [carvacrol]
survival time (none survived beyond) ([2]; first experiment, twelve mice, two doses equivalent to phenol content in 1.6 mg and 3.2 mg oregano oil): ≤ 21 days
renal culture after death ([2]; first in vivo study, carvacrol at phenol-equivalent doses): Staphylococcus aureus was grown out of their kidneys
in vivo effect on survival (in words) [2]: prolonged survival
in vivo effect on survival (in words) ([2]; listed as Carvacrol): delayed death but could not cure the mice
effective phenol content, as equivalent amount of oregano oil ([3]; ATCC#14775, carvacrol expressed as oregano oil equivalent): 0.5 mg
killing of Staphylococcus aureus in vitro (summary) [3]: killed Staphylococcus aureus effectively in vitro
effective concentration, as comparable dose of oregano oil (phenol content) ([1]; ATCC#14154, carvacrol expressed as oregano oil equivalent): 0.5 mg
phenol content needed for the same efficacy as oregano oil ([1]; relative to one oregano oil dosage, strain not specified): twice the phenol content

CCCCCCCCCCCC(=O)OCC(O)CO (stereo not shown) [monolaurin, glycerol monolaurate]
in vivo effect on survival (in words) [2]: protective effect
mice surviving for 30 days (survivors/group) [2]: 4/8
mice surviving thirty days (survivors/total) [2]: 4/8
growth after two days of incubation ([3]; ATCC#14775, 0.125 mg of each agent): A few Staphylococcus aureus (ATCC#14775) colonies grew
killing of Staphylococcus aureus in vitro (summary) [3]: killed Staphylococcus aureus effectively in vitro

CN[C@H](CC(C)C)C(=O)N[C@H]1C(=O)N[C@@H](CC(N)=O)C(=O)N[C@H]2C(=O)N[C@H]3C(=O)N[C@H](C(=O)N[C@H](C(=O)O)c4cc(O)cc(O)c4-c4cc3ccc4O)[C@H](O)c3ccc(c(Cl)c3)Oc3cc2cc(c3O[C@@H]2O[C@H](CO)[C@@H](O)[C@H](O)[C@H]2O[C@H]2C[C@](C)(N)[C@H](O)[C@H](C)O2)Oc2ccc(cc2Cl)[C@H]1O [vancomycin]
mice surviving for 30 days ([2]; first experiment, groups of six, 400 μg i.p. daily): 50%
mice surviving for 30 days (survivors/group) [2]: 4/8
mice surviving thirty days (survivors/total) [2]: 7/14
effect against Staphylococcus aureus (in words) [1]: completely destroyed the bacteria

penicillin
effect against Staphylococcus aureus (in words) [1]: essentially showed no effect
